Test results published in patent publication US20220386606A1, “SPECIFICALLY SUBSTITUTED 3-PHENYL-5-SPIROCYCLOPENTYL-3-PYRROLIN-2-ONES AND THEIR USE AS HERBICIDES” (Bayer Aktiengesellschaft, priority 2019, published 2022).

Legend:
[1] = tested on: ALOMY; test: Pre-emergence herbicidal action against ALOMY; format: in vivo, Alopecurus myosuroides; conditions: 320 g/ha, scored visually after 3 weeks vs untreated controls
Outline: (§1)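 Weed and crop seeds sown in sandy loam, then WP or EC formulations sprayed onto covering soil pre-emergence as aqueous suspension or emulsion at 600 to 800 L/ha water with 0.2% wetting agent. Greenhouse-grown; visual damage scored after 3 weeks versus untreated controls, 0–100%.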

[2] = tested on: AVEFA; test: Pre-emergence herbicidal action against AVEFA; format: in vivo, Avena fatua; conditions: 320 g/ha, scored visually after 3 weeks vs untreated controls
Outline: as §1

[3] = tested on: DIGSA; test: Pre-emergence herbicidal action against DIGSA; format: in vivo, Digitaria sanguinalis; conditions: 320 g/ha, scored visually after 3 weeks vs untreated controls
Outline: as §1

[4] = tested on: ECHCG; test: Pre-emergence herbicidal action against ECHCG; format: in vivo, Echinochloa crus-galli; conditions: 320 g/ha, scored visually after 3 weeks vs untreated controls
Outline: as §1

[5] = tested on: LOLRI; test: Pre-emergence herbicidal action against LOLRI (Table 8, titled post-emergence at 320 g/ha); format: in vivo, Lolium rigidum; conditions: table stands in the pre-emergence section
Outline: as §1

[6] = tested on: SETVI; test: Pre-emergence herbicidal action against SETVI; format: in vivo, Setaria viridis; conditions: 320 g/ha, scored visually after 3 weeks vs untreated controls
Outline: as §1

[7] = tested on: ABUTH; test: Pre-emergence herbicidal action against ABUTH; format: in vivo, Abutylon threophrasti; conditions: 320 g/ha
Source text: (§2) Seeds of monocotyledonous and dicotyledonous weed plants and crop plants are laid out in sandy loam soil in wood-fiber pots and covered with soil. The compounds of the invention, formulated in the form of wettable powders (WP) or as emulsion concentrates (EC), are then applied to the surface of the covering soil as aqueous suspension or emulsion at a water application rate equating to 600 to 800 L/ha with addition of 0.2% wetting agent.
(§3) After the treatment, the pots are placed in a greenhouse and kept under good growth conditions for the trial plants. The damage to the test plants is scored visually after a test period of 3 weeks by comparison with untreated controls (herbicidal activity in percent (%): 100% activity=the plants have died, 0% activity=like control plants).

[8] = tested on: AMARE; test: Pre-emergence herbicidal action against AMARE; format: in vivo, Amaranthus retroflexus; conditions: 320 g/ha
Outline: as §1

[9] = tested on: MATIN; test: Pre-emergence herbicidal action against MATIN; format: in vivo; conditions: 320 g/ha
Outline: as §1

[10] = tested on: VIOTR; test: Pre-emergence herbicidal action against VIOTR; format: in vivo, Viola tricolor; conditions: 320 g/ha
Outline: as §1

[11] = tested on: VERPE; test: Pre-emergence herbicidal action against VERPE; format: in vivo, Veronica persica; conditions: 320 g/ha
Outline: as §1

[12] = tested on: ALOMY; test: Post-emergence herbicidal action against ALOMY; format: in vivo, Alopecurus myosuroides; conditions: 80 g/ha, visual assessment after about 3 weeks
Outline: (§4)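 Sow in sandy loam and grow in the greenhouse for 2 to 3 weeks to the one-leaf stage. Spray the compound as an aqueous suspension or emulsion with 0.2% wetting agent, 600 to 800 l/ha water rate. Hold about 3 weeks, then score damage visually versus controls.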

[13] = tested on: AVEFA; test: Post-emergence herbicidal action against AVEFA; format: in vivo, Avena fatua; conditions: 80 g/ha, visual assessment after about 3 weeks
Outline: as §4

[14] = tested on: DIGSA; test: Post-emergence herbicidal action against DIGSA; format: in vivo, Digitaria sanguinalis; conditions: 80 g/ha, visual assessment about 3 weeks after treatment vs untreated controls
Outline: as §4

[15] = tested on: ECHCG; test: Post-emergence herbicidal action against ECHCG; format: in vivo, Echinochloa crus-galli; conditions: 80 g/ha, visual assessment about 3 weeks after treatment vs untreated controls
Outline: as §4

[16] = tested on: LOLRI; test: Post-emergence herbicidal action against LOLRI; format: in vivo, Lolium rigidum; conditions: 80 g/ha, visual assessment about 3 weeks after treatment vs untreated controls
Outline: as §4

[17] = tested on: SETVI; test: Post-emergence herbicidal action against SETVI; format: in vivo, Setaria viridis; conditions: 80 g/ha, visual assessment about 3 weeks after treatment vs untreated controls
Outline: as §4

[18] = tested on: POLCO; test: Pre-emergence herbicidal action against POLCO; format: in vivo, Polygonum convolvulus; conditions: 320 g/ha
Source text: as §2, §3

[19] = tested on: ABUTH; test: Post-emergence herbicidal action against ABUTH; format: in vivo, Abutylon threophrasti; conditions: 80 g/ha, visual assessment about 3 weeks after treatment vs untreated controls
Outline: as §4

Structure (SMILES)	Pre-emergence action against ALOMY in % [1] [%]	Pre-emergence action against AVEFA in % [2] [%]	Pre-emergence action against DIGSA in % [3] [%]	Pre-emergence action against ECHCG in % [4] [%]	Pre-emergence herbicidal action against LOLRI in % [5] [%]	Pre-emergence action against SETVI in % [6] [%]	Pre-emergence action against ABUTH in % [7] [%]	Pre-emergence action against AMARE in % [8] [%]	Pre-emergence action against MATIN in % [9] [%]	Pre-emergence action against VIOTR in % [10] [%]	Pre-emergence action against VERPE in % [11] [%]	Post-emergence action against ALOMY in % [12] [%]	Post-emergence action against AVEFA in % [13] [%]	Post-emergence action against DIGSA in % [14] [%]	Post-emergence action against ECHCG in % [15] [%]	Post-emergence action against LOLRI in % [16] [%]	Post-emergence action against SETVI in % [17] [%]	Pre-emergence action against POLCO in % [18] [%]	Post-emergence action against ABUTH in % [19] [%]
CC#Cc1cc(C)c(C2=C(O)C3(CCC(COCC)C3)NC2=O)c(Cl)c1 (stereo not shown) [Example I-17]	100	100	100	100	100	100	90	100	90	100	90	100	90	100	100	100	100		
C#CCOCC1CCC2(C1)NC(=O)C(c1c(C)cc(C#CC)cc1Cl)=C2OC(=O)OCC (stereo not shown) [Example P-100]	100	90	100	100	100	100	80	100	90	100	90	100	80	90	100	100	100		
CC#Cc1cc(C)c(C2=C(O)C3(CCC(COCCOC)C3)NC2=O)c(Cl)c1 (stereo not shown) [Example I-50]	100	100	100	100	100	100	100	80	80	100		100	80		100	90	100	90	
CC#Cc1cc(C)c(C2=C(OC(=O)OCC)C3(CCC(COCCOC)C3)NC2=O)c(Cl)c1 (stereo not shown) [Example P-75]	100	100	100	100	100	100	80	100	90	100	90	100	90	90	100	100	100	80	
CC#Cc1cc(Cl)c(C2=C(O)C3(CCC(COC)C3)NC2=O)c(OC)c1 (stereo not shown) [Example I-72]	100	100	100	100	100	100	100		100	100		90	100	100	100	100	100		
CC#Cc1cc(Cl)c(C2=C(OC(=O)OCC)C3(CCC(COC)C3)NC2=O)c(OC)c1 (stereo not shown) [Example P-98]	100	100	100	100	100	100	90	100	90	100	100	100	90	100	100	100	100		
CC#Cc1cc(C)c(C2=C(O)C3(CCC(COC)C3)NC2=O)c(Br)c1 (stereo not shown) [Example I-18]	100	100	100	100	100	100	80	100		100		100	100	100	100	100	100	100	80
CC#Cc1cc(Cl)c(C2=C(OC(=O)OCC)C3(CCC(COC)C3)NC2=O)c(OC)c1 (stereo not shown) [Example P-97]	100	100	100	100	100	100	100	100	100	90	100	100	100	100	100	100	100		
CC#Cc1cc(Cl)c(C2=C(O)C3(CCC(COC)C3)NC2=O)c(OC)c1 (stereo not shown) [Example I-73]	100	100	100	100	100	100	100	100	90	100	90	100	100	100	100	100	100		
